# Reference: US10722484B2, “Methods of cancer treatment” (K-Gen, Inc., priority 2016, dated 2020)
# Where two headings read alike, the source gives them in different places.
# Experiments:
# Test in all cases: Proliferation assay (CellTiter Glo)
# HL60 = type: cell-based, human; conditions: 96 hours; for Top Inhibition %: % of top inhibition
# Method: (§1) The dose range for most compounds was 4.6 nM-30 μM. The dose ranges for some compounds were adjusted downward to 0.46 nM-3 μM or 0.08 nM-0.5 μM or 0.03 nM-0.2 μM. […] The results are shown in Tables 3-6 for pancreatic cancer, lung cancer, colon/gastric cancer, and leukemia.
# THP1 = type: cell-based, human; conditions: 96 hours; for Top Inhibition %: % of top inhibition
# Method: as §1
# MiaPaCa-2 = type: cell-based; conditions: 96 hours; for Top Inhibition %: % of top inhibition
# Colo205 = type: cell-based; conditions: Colo205 (RAS WT); 96 hours
# Method: as §1
# (§2) Other cancer cell lines having wild-type K-RAS status and K-RAS mutation at G12 were also screened using the PKC activator compounds. […] K104 was tested in a range of 0.03 nM-0.2 μM. […] The dose ranges were adjusted downward to 0.46 nM-3 μM for K102 and 0.08 nM-0.5 μM for K103 for some cell lines. The results of the screening of cancer cells lines with wild-type K-RAS status and K-RAS mutations at the G12 positions are presented in Table 7.
# H1915 = type: cell-based; conditions: H1915 (RAS WT); 96 hours
# Method: as §1, §2
# RPMI8226 = type: cell-based; conditions: RPM18226; 96 hours
# Method: as §1, §2
# HT29 = type: cell-based; conditions: HT29 (RAS WT); 96 hours
# Method: as §1, §2
# SW900 = type: cell-based; conditions: SW900 (K-RAS: G12V); 96 hours
# Method: as §1, §2
# BxPC-3 = type: cell-based; conditions: BxPC-3 (RAS WT); 96 hours
# Method: as §1, §2
# H838 = type: cell-based; conditions: H838 (RAS WT); 96 hours
# Method: as §1, §2
# Pan2.13 = type: cell-based; conditions: 96 hours; for Top Inhibition %: % of top inhibition
# Method: as §1
# AGS = type: cell-based; conditions: 96 hours; for Top Inhibition %: % of top inhibition
# Method: as §1
# H358 = type: cell-based; conditions: HE58, 96 hours; for Top Inhibition %: % of top inhibition
# Method: as §1
# Pan2.03 = type: cell-based; conditions: 96 hours; for Top Inhibition %: % of top inhibition
# Method: as §1
# H441 = type: cell-based; conditions: 96 hours; for Top Inhibition %: % of top inhibition
# Method: as §1
# Capan-1 = type: cell-based; conditions: 96 hours; for Top Inhibition %: % of top inhibition
# Method: as §1
# H727 = type: cell-based; conditions: 96 hours; for Top Inhibition %: % of top inhibition
# Method: as §1
# AsPC-1 = type: cell-based; conditions: 96 hours; for Top Inhibition %: % of top inhibition
# Method: as §1
# SW620 = type: cell-based; conditions: 96 hours; for EC50: SW620 (K-RAS: G12V), absolute EC50, read-out: Ab EC50; for Top Inhibition %: SW620, % of top inhibition
# Method: as §1
# LS180 = type: cell-based; conditions: 96 hours; for EC50: LS180 (K-RAS: G12D), absolute EC50, read-out: Ab EC50; for Top Inhibition %: LS180, % of top inhibition
# Method: as §1
# KP-4 = type: cell-based; conditions: 96 hours; for Top Inhibition %: % of top inhibition
# Method: as §1
# A549 = type: cell-based; conditions: 96 hours; for Top Inhibition %: % of top inhibition
# Method: as §1
# HCT116 = type: cell-based; conditions: 96 hours; for Top Inhibition %: % of top inhibition
# Method: as §1
# CCRF-CEM = type: cell-based; conditions: 96 hours; for Top Inhibition %: % of top inhibition
# Method: as §1
# [1] = Pan2.13 (K-RAS: Q61H), absolute EC50, read-out: Ab EC50
# [2] = Pan2.13, relative EC50, read-out: Re EC50
# [3] = Pan2.03 (K-RAS: G12D), absolute EC50, read-out: Ab EC50
# [4] = Pan2.03, relative EC50, read-out: Re EC50
smiles,measurement,setting,value
CC(=O)OCC1=CC2C3C(C)(C)C3(OC(C)=O)CC(C)C2(O)C2C=C(C)C(=O)C2(O)C1 (centres unmarked) [Compound K101E],EC50,"HL60; HL60 (N-RAS: Q61L), absolute EC50, read-out: Ab EC50",3050 nM
same,Top Inhibition %,HL60; HL60,63.4%
same,EC50,"HL60; HL60, relative EC50, read-out: Re EC50",1920 nM
same,EC50,"THP1; THP1 (N-RAS: G12D), absolute EC50, read-out: Ab EC50",3600 nM
same,Top Inhibition %,THP1; THP1,51.6%
same,EC50,"THP1; THP1, relative EC50, read-out: Re EC50",1020 nM
same,EC50,"MiaPaCa-2; MiaPaCa-2 (K-RAS: G12C), absolute EC50, read-out: Ab EC50",1880 nM
same,Top Inhibition %,MiaPaCa-2; MiaPaCa-2,61.4%
same,EC50,"MiaPaCa-2; MiaPaCa-2, relative EC50, read-out: Re EC50",860 nM
same,Top Inhibition %,Colo205,85.8%
same,Top Inhibition %,H1915,35.6%
same,Top Inhibition %,RPMI8226,32.25%
same,Top Inhibition %,HT29,31.7%
same,Top Inhibition %,SW900,25.4%
same,Top Inhibition %,BxPC-3,38.87%
same,Top Inhibition %,H838,26.8%
same,EC50,Pan2.13; [1],> 200 nM
same,Top Inhibition %,Pan2.13; Pan2.13,49.8%
same,EC50,Pan2.13; [2],44 nM
same,EC50,"AGS; AGS (gastric, K-RAS: G12D), absolute EC50, read-out: Ab EC50",> 30000 nM
same,Top Inhibition %,AGS; AGS,25.9%
same,EC50,"AGS; AGS, relative EC50, read-out: Re EC50",4380 nM
same,Top Inhibition %,H358,47.9%
same,EC50,"H358; absolute EC50, read-out: Ab EC50",> 30000 nM
same,EC50,"H358; relative EC50, read-out: Re EC50",1250 nM
same,EC50,Pan2.03; [3],> 30000 nM
same,Top Inhibition %,Pan2.03; Pan2.03,36.5%
same,EC50,Pan2.03; [4],1920 nM
same,EC50,"H441; H441 (K-RAS: G12V), absolute EC50, read-out: Ab EC50",> 30000 nM
same,Top Inhibition %,H441; H441,49.1%
same,EC50,"H441; H441, relative EC50, read-out: Re EC50",2610 nM
same,EC50,"Capan-1; Capan-1 (K-RAS: G12V), absolute EC50, read-out: Ab EC50",> 30000 nM
same,Top Inhibition %,Capan-1; Capan-1,44.6%
same,EC50,"Capan-1; Capan-1, relative EC50, read-out: Re EC50",830 nM
same,EC50,"H727; H727 (K-RAS: G12V), absolute EC50, read-out: Ab EC50",> 30000 nM
same,Top Inhibition %,H727; H727,49.1%
same,EC50,"H727; H727, relative EC50, read-out: Re EC50",620 nM
same,EC50,"AsPC-1; AsPC-1 (K-RAS: G12D), absolute EC50, read-out: Ab EC50",> 30000 nM
same,Top Inhibition %,AsPC-1; AsPC-1,35.2%
same,EC50,"AsPC-1; AsPC-1, relative EC50, read-out: Re EC50",2780 nM
same,EC50,SW620,> 30000 nM
same,Top Inhibition %,SW620,0.0%
same,EC50,LS180,> 30000 nM
same,Top Inhibition %,LS180,1.3%
same,EC50,"KP-4; KP-4 (K-RAS: G12C), absolute EC50, read-out: Ab EC50",1280 nM
same,Top Inhibition %,KP-4; KP-4,69.1%
same,EC50,"KP-4; KP-4, relative EC50, read-out: Re EC50",680 nM
same,EC50,"A549; A549 (K-RAS: G12S), absolute EC50, read-out: Ab EC50",2640 nM
same,Top Inhibition %,A549; A549,78.7%
same,EC50,"A549; A549, relative EC50, read-out: Re EC50",1560 nM
same,EC50,"HCT116; HCT116 (K-RAS: G13D), absolute EC50, read-out: Ab EC50",> 30000 nM
same,Top Inhibition %,HCT116; HCT116,27.4%
same,EC50,"HCT116; HCT116, relative EC50, read-out: Re EC50",6640 nM
same,EC50,"CCRF-CEM; CCRF-CEM (K-RAS: G12D), absolute EC50, read-out: Ab EC50",> 30000 nM
same,Top Inhibition %,CCRF-CEM; CCRF-CEM,34.3%
same,EC50,"CCRF-CEM; CCRF-CEM, relative EC50, read-out: Re EC50",270 nM
"CCCCCCCCCCCCCC(=O)O[C@@H]1[C@@H](C)[C@@]2(O)[C@@H](C=C(CO)C[C@]3(O)C(=O)C(C)=C[C@@H]23)[C@@H]2C(C)(C)[C@]12OC(C)=O [Compound K103, 12-O-Tetradecanoylphorbol-13-acetate]",Top Inhibition %,HL60; HL60,60.0%
same,EC50,"HL60; Homo sapiens, HL-60, HL60 (N-RAS: Q61L), absolute EC50, read-out: Ab EC50",< 4.6 nM
same,EC50,"THP1; Homo sapiens, THP-1, THP1 (N-RAS: G12D), absolute EC50, read-out: Ab EC50",< 4.6 nM
same,Top Inhibition %,THP1; THP1,52.9%
same,EC50,"MiaPaCa-2; Homo sapiens, MIA PaCa-2, MiaPaCa-2 (K-RAS: G12C), absolute EC50, read-out: Ab EC50",0.28 nM
same,EC50,"MiaPaCa-2; Homo sapiens, MIA PaCa-2, MiaPaCa-2, relative EC50, read-out: Re EC50",0.24 nM
same,Top Inhibition %,MiaPaCa-2; MiaPaCa-2,81.1%
same,Top Inhibition %,Colo205,86.8%
same,Top Inhibition %,H1915,27.9%
same,Top Inhibition %,RPMI8226,32.75%
same,Top Inhibition %,HT29,20.9%
same,Top Inhibition %,SW900,18.7%
same,Top Inhibition %,BxPC-3,44.46%
same,Top Inhibition %,H838,15.5%
same,EC50,Pan2.13; [1],> 500 nM
same,Top Inhibition %,Pan2.13; Pan2.13,41.9%
same,EC50,Pan2.13; [2],0.66 nM
same,Top Inhibition %,AGS; AGS,47.2%
same,EC50,"AGS; Homo sapiens, AGS (gastric, K-RAS: G12D), absolute EC50, read-out: Ab EC50",> 500 nM
same,EC50,"AGS; Homo sapiens, AGS, relative EC50, read-out: Re EC50",1.1 nM
same,Top Inhibition %,H358,59.6%
same,EC50,"H358; Homo sapiens, NCI-H358, absolute EC50, read-out: Ab EC50",2.2 nM
same,EC50,"H358; Homo sapiens, NCI-H358, relative EC50, read-out: Re EC50",0.4 nM
same,EC50,Pan2.03; [3],> 500 nM
same,Top Inhibition %,Pan2.03; Pan2.03,32.2%
same,EC50,Pan2.03; [4],0.9 nM
same,Top Inhibition %,H441; H441,46.7%
same,EC50,"H441; Homo sapiens, NCI-H441, H441 (K-RAS: G12V), absolute EC50, read-out: Ab EC50",> 500 nM
same,EC50,"H441; Homo sapiens, NCI-H441, H441, relative EC50, read-out: Re EC50",0.75 nM
same,Top Inhibition %,Capan-1; Capan-1,51.0%
same,EC50,"Capan-1; Homo sapiens, Capan-1 (K-RAS: G12V), absolute EC50, read-out: Ab EC50",14 nM
same,Top Inhibition %,H727; H727,57.4%
same,EC50,"H727; Homo sapiens, NCI-H727, H727 (K-RAS: G12V), absolute EC50, read-out: Ab EC50",2.2 nM
same,EC50,"H727; Homo sapiens, NCI-H727, H727, relative EC50, read-out: Re EC50",0.37 nM
same,Top Inhibition %,AsPC-1; AsPC-1,32.7%
same,EC50,"AsPC-1; Homo sapiens, ASPC1, AsPC-1 (K-RAS: G12D), absolute EC50, read-out: Ab EC50",> 500 nM
same,EC50,"AsPC-1; Homo sapiens, ASPC1, AsPC-1, relative EC50, read-out: Re EC50",1.3 nM
same,EC50,"SW620; Homo sapiens, SW-620",> 10000 nM
same,Top Inhibition %,SW620,1.2%
same,EC50,LS180; Homo sapiens,> 10000 nM
same,Top Inhibition %,LS180,14.7%
same,EC50,"KP-4; Homo sapiens, KP-4 (K-RAS: G12C), absolute EC50, read-out: Ab EC50",< 4.6 nM
same,Top Inhibition %,KP-4; KP-4,70.3%
same,Top Inhibition %,A549; A549,80.6%
same,EC50,"A549; Homo sapiens, A549 (K-RAS: G12S), absolute EC50, read-out: Ab EC50",< 4.6 nM
same,Top Inhibition %,HCT116; HCT116,21.4%
same,EC50,"HCT116; Homo sapiens, HCT-116, HCT116 (K-RAS: G13D), absolute EC50, read-out: Ab EC50",> 500 nM
same,EC50,"HCT116; Homo sapiens, HCT-116, HCT116, relative EC50, read-out: Re EC50",1.2 nM
same,Top Inhibition %,CCRF-CEM; CCRF-CEM,37.7%
same,EC50,"CCRF-CEM; Homo sapiens, CCRF-CEM (K-RAS: G12D), absolute EC50, read-out: Ab EC50",> 500 nM
same,EC50,"CCRF-CEM; Homo sapiens, CCRF-CEM, relative EC50, read-out: Re EC50",0.24 nM
